Experimental findings from paper PMC4459817, “Vasculotide reduces endothelial permeability and tumor cell extravasation in the absence of binding to or agonistic activation of Tie2” (EMBO Molecular Medicine, 2015) are described below.

This assay deals with human microvascular ECs of lung blood vessel origin (HMVEC-LBl). Description: modified Boyden chamber, thrombin-stimulated FITC-dextran permeability, HMVEC-LBl. The format is cell-based. Conditions: VT 10–20 ng/mL, Ang1 200–400 ng/mL, 30 min pretreatment, FITC fluorescence ex/em 490/520 nm, n = 3–5 inserts, unpaired t-test, Fig1A. On the procedure:
ECs were first treated with Vasculotide (VT), PBS (vehicle/negative control), Ang1 (positive control), PEG-Cys (polyethylene glycol backbone), T7c (non-PEGylated CHHHRHSF peptides), or VT in the presence of 100-fold molar excess of T7c. The concentrations used, 10–20 ng/mL VT and 200–400 ng/mL Ang1, are estimated molar equivalents (0.71–1.43 nM). Thirty minutes later, ECs were stimulated with thrombin, 0.1% BSA (vehicle/negative control), or EDTA (positive control). Another 30mins later, the amount of FITC-dextran diffusion into the lower chambers (A, D) provides a measure of endothelial permeability. CMTPX-labeled tumor cells (TCs) were then dispensed into inserts, and the amount of TC fluorescence emitting from the underside of insert membranes after 20 h (B–C) or 28 h (E) reflects the efficiency of trans-endothelial TC migration. […] Three experiments (twice with HMVEC-LBl and once with HMVEC-DBl) were run with n = 3–5 inserts (independent biological replicates) per group and analyzed by two-sampled unpaired t-tests. […]
Endothelial cells (ECs) were grown on cell culture inserts with uncoated 8-μm-pore PET filter membranes to 100% confluency. […] After 30 min of thrombin stimulation or 4–6 h of TC-CM stimulation, FITC fluorescence (ex/em = 490/520 nm) was measured from a 50 μl sample of the lower chamber media. […]

Take “CHHHRHSF [Vasculotide, 4-armed maleimide-functionalized polyethylene glycol (PEG) backbone to link together four cysteine-capped T7 peptides, that is, CHHHRHSF]”: the “transendothelial permeability of FITC-dextran” value was “counteract thrombin-stimulated increases in transendothelial permeability of FITC-dextran (P < 0.05”.

B1: recombinant human Ang1 (rhAng1) (ligand, UniProt Q15389 16-498, looked up)
chain: HIGCSNQRRSPENSGRRYNRIQHGQCAYTFILPEHDGNCRESTTDQYNTNALQRDAPHVEPDFSSQKLQHLEHVMENYTQWLQKLENYIVENMKSEMAQIQQNAVQNHTATMLEIGTSLLSQTAEQTRKLTDVETQVLNQTSRLEIQLLENSLSTYKLEKQLLQQTNEILKIHEKNSLLEHKILEMEGKHKEELDTLKEEKENLQGLVTRQTYIIQELEKQLNRATTNNSVLQKQQLELMDTVHNLVNLCTKEGVLLKGGKREEEKPFRDCADVYQAGFNKSGIYTIYINNMPEPKKVFCNMDVNGGGWTVIQHREDGSLDFQRGWKEYKMGFGNPSGEYWLGNEFIFAITSQRQYMLRIELMDWEGNRAYSQYDRFHIGNEKQNYRLYLKGHTGTAGKQSSLILHGADFSTKDADNDNCMCKCALMLTGGWWFDACGPSNLNGMFYTAGQNHGKLNGIKWHYFKGPSYSLRSTTMMIRPLDF
notes: angiopoietin-1, human, recombinant; also called angiopoietin-1; source: bought: R&D Systems (named for the Boyden chamber experiments)
On to B1, for which the “transendothelial permeability of FITC-dextran” value was “counteract thrombin induction of trans-endothelium macromolecular permeability”.
